Results on one compound are retold here after PMC10145285, “Diverse Biological Activity of Benzofuroxan/Sterically Hindered Phenols Hybrids” (Pharmaceuticals, 2023).

Assay [1] relates to M-HeLa. Put plainly: cells. The following applies: Homo sapiens, 48 h, read-out: IC50, M-HeLa.
Assay [2] has as its system HuTu 80, MCF-7 and human cervical carcinoma cell lines. As to the kind of experiment: cells. Format: cell-based. The settings on record: 120 h, read-out: IC50 range over HuTu 80, MCF-7 and human cervical carcinoma lines.
The test system of assay [3] is Enterococcus faecalis ATCC 29212 (Ef). Put plainly: Antimicrobial serial microdilution, Ef. In kind it is cell-based. (In general: Broth dilution looks for growth in wells or tubes with falling amounts of substance.)
Assay [4] has as its system WI38. As to the kind of experiment: cells. Format: cell-based. The following applies: Homo sapiens, WI-38, 48 h, read-out: IC50, WI38.
In assay [5] the test system is M-HeLa cells. Put plainly: Intracellular ROS, CellROX Deep Red flow cytometry. In kind it is cell-based, human. The following applies: concentration equal to IC50 cytotoxicity on M-HeLa, 48 h; result in words. From the text:
Apoptosis can be induced in various ways, including an increase in the production of reactive oxygen species (ROS) in the cell, with subsequent oxidative stress and destruction of membrane lipids, proteins and nucleic acids. Thus, chemical compounds that disturb the redox balance and lead to the production and accumulation of ROS are potential agents for targeting the transformed cells. To understand the possible synergy between the different components of these hybrid agents, we compared the ROS production for compounds 4c, 5d, starting phenols 2c, 2d and furoxan 3 at the concentration of IC50 cytotoxicity on M-HeLa cells (Figure 4). A significant increase in CellROX® Deep Red fluorescence intensity indicates an increase in ROS production.
Detection of Intracellular ROS. […] ROS generation was investigated using flow cytometry assay and CellROX® Deep Red flow cytometry kit. For this M-HeLa cells were harvested at 2000 rpm for 5 min and then washed twice with ice-cold PBS, followed by resuspension in 0.1 mL of medium without FBS, to which was added 0.2 μL of CellROX® Deep Red and incubated at 37 °C for 30 min. After three times washing the cells and suspending them in PBS, the production of ROS in the cells was immediately monitored using flow cytometer (Guava easy Cyte, Merck, Rahway, NJ, USA).
For orientation: A flow cytometer gives signals particle by particle.

Assay [6] relates to A375. Put plainly: cells. The following applies: Homo sapiens, A-375, 48 h, read-out: IC50, A375. Format: cell-based.
The test system of assay [7] is Bacillus cereus ATCC 10702 (Bc). As to the kind of experiment: Antimicrobial serial microdilution, Bc. Format: cell-based.
For assay [8], the system named is A549. As to the kind of experiment: cells. The following applies: Homo sapiens, A549, 48 h, read-out: IC50, A549.
Assay [9] deals with HuTu 80. Put plainly: cells. The settings on record: Homo sapiens, HuTu80, 48 h, read-out: IC50, HuTu 80.
The test system of assay [10] is Chang Liver. As to the kind of experiment: cells. The following applies: Homo sapiens, 48 h, read-out: IC50, Chang Liver.
In assay [11] the test system is MRSA-1. As to the kind of experiment: Antimicrobial serial microdilution, MRSA-1. In kind it is cell-based, Staphylococcus aureus. The settings on record: serial microdilution; strain resistant to β-lactams and fluoroquinolones.
Assay [12] has as its system M-HeLa.
The subject of assay [13] is PC3. Put plainly: cells. In kind it is cell-based. The following applies: Homo sapiens, PC-3, 48 h, read-out: IC50, PC3.
The subject of assay [14] is MCF-7. Put plainly: cells. Format: cell-based, human.
For assay [15], the system named is PANC-1. Put plainly: cells. The following applies: Homo sapiens, PANC-1, 48 h, read-out: IC50, PANC-1.
The subject of assay [16] is MRSA-2. Put plainly: Antimicrobial serial microdilution, MRSA-2. Format: cell-based, Staphylococcus aureus. The settings on record: serial microdilution; strain resistant only to β-lactams.
Assay [17] relates to Staphylococcus aureus ATCC 6538P FDA 209P (Sa). As to the kind of experiment: Antimicrobial serial microdilution, Sa. In kind it is cell-based.
For assay [18], the system named is T98G. As to the kind of experiment: cells. The settings on record: Homo sapiens, 48 h, read-out: IC50, T98G. In kind it is cell-based.

Broadly, the IC50 is the concentration that gives 50% inhibition.

The structures appear in SMILES notation.

With `CC(C)OP(=O)(OC(C)C)C(c1cc(C(C)(C)C)c(O)c(C(C)(C)C)c1)c1ccc(Nc2c([N+](=O)[O-])cc([N+](=O)[O-])c3no[n+]([O-])c23)nc1N` (stereo not shown) [4c, 7-((6-amino-5-((3,5-di-tert-butyl-4-hydroxyphenyl)(diisopropoxyphosphoryl)methyl)pyridin-2-yl)amino)-4,6-dinitrobenzo[c][1,2,5]oxadiazole 1-oxide], the IC50 is 900 ± 70 nM in assay [1]; 900 to 5900 nM in [2]; 2000 ± 100 nM in [4]; 2900 ± 200 nM in assay [6]; 900 ± 80 nM in [8]; 900 ± 70 nM in assay [9]. The IC50 in assay [10] stood at 2100 ± 700 nM; in assay [13] it was 1200 ± 1000 nM; in assay [14] (Homo sapiens, MCF7, 48 h, read-out: IC50, MCF-7) it was 1100 ± 100 nM; in assay [15], 11200 ± 900 nM; in assay [18] it was 2200 ± 100 nM. In assay [3], the “Minimum Inhibitory Concentration (MIC), Ef” value is “-”. Moreover, the “ROS production (CellROX Deep Red fluorescence intensity)” value in [5] was “ROS production significantly exceeds that for the original phenol 2c and furoxan 3”. Besides, in [7], the “Minimum Inhibitory Concentration (MIC), Bc” value is on record as “-”. The “Minimum Inhibitory Concentration (MIC), MRSA-1” value in [11] is given as “-”. The “Times more active than the starting SHP, M-HeLa” value in assay [12] was found to be 40 times. The “Times more active than the starting SHP, MCF-7” value in assay [14] is 20 times. In assay [16], the “Minimum Inhibitory Concentration (MIC), MRSA-2” value was “-”. In addition, the “Minimum Inhibitory Concentration (MIC), Sa” value in [17] is listed as “-”.
